Measured values from patent US10604512B2, “3-(1H-indol-2-yl)-1H-indazoles and therapeutic uses thereof” (Samumed, LLC, priority 2015, dated 2020).

Experiments:
[1] = test system: SW480 colon cancer cells; test: Cell viability assay (CellTiter-Blue) in SW480 colon cancer cells; format: cell-based; conditions: Homo sapiens, 96 h, four days; for EC50: CellTiter-Blue; for inhibition at 10 µM: given where EC50 >10 μM, read-out: percent inhibition at 10 μM
In short: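 Resazurin reduction (Ex 560/Em 590 nm, ~3 h reagent incubation) served as the viability read-out after SW480 cells were treated for four days at 37 °C. Doses ran from 10 μM down to 0.0045 μM in eight 1:3 steps. Curves fitted non-linearly for EC50, else % inhibition at 10 μM reported.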

[2] = test system: Primary human fibroblasts derived from IPF patients (LL29 cells) treated with TGF-β1; test: Inhibition of the fibrotic process: αSMA staining in TGF-β1-treated primary human fibroblasts from IPF patients (LL29 cells); format: cell-based; conditions: Fibroblast, 96 h; for EC50: % αSMA-positive LL29 cells, TGF-β1 20 ng/mL, 4 days; for inhibition at 10 µM: given where EC50 >10 μM, αSMA, LL29 cells, TGF-β1, 4 days, read-out: percent inhibition at 10 μM
In short: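 LL29 IPF-patient fibroblasts in 1% FBS stimulated with TGF-β1 (20 ng/mL) and compound (10 μM–1.87 nM, 0.1% DMSO) for 4 days at 37 °C. SYTOX-positive cells excluded; % αSMA-positive cells imaged, normalized to TGF-β1/DMSO wells; EC50 by nonlinear regression, else % inhibition at 10 μM.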

| Structure (SMILES) | EC50 [1] [nM] | EC50 [2] [nM] | inhibition at 10 µM [1] [%] | inhibition at 10 µM [2] [%] |
| --- | --- | --- | --- | --- |
| CN(C)Cc1cncc(-c2ccc3[nH]nc(-c4cc5c(-c6ccncc6)cccc5[nH]4)c3c2)c1 [Compound 125, N,N-dimethyl-1-(5-(3-(4-(Pyridin-4-yl)-1H-indol-2-yl)-1H-indazol-5-yl)pyridin-3-yl)methanamine] | 412 | 1240 |  |  |
| CCCC(=O)Nc1cncc(-c2ccc3[nH]nc(-c4cc5c(-c6ccncc6)cccc5[nH]4)c3c2)c1 [Compound 129, N-(5-(3-(4-(Pyridin-4-yl)-1H-indol-2-yl)-1H-indazol-5-yl)pyridin-3-yl) butyramide] | 9530 | 2870 |  |  |
| c1cc(-c2ccncc2)c2cc(-c3n[nH]c4ccc(-c5ccncc5)cc34)[nH]c2c1 [Compound 130, 5-(Pyridin-4-yl)-3-(4-(pyridin-4-yl)-1H-indol-2-yl)-1H-indazole] | > 10000 | 1650 | 23.2 |  |
| O=C(Nc1cncc(-c2ccc3[nH]nc(-c4cc5c(-c6ccncc6)cccc5[nH]4)c3c2)c1)C1CC1 [Compound 132, N-(5-(3-(4-(Pyridin-4-yl)-1H-indol-2-yl)-1H-indazol-5-yl)pyridin-3-yl) cyclopropanecarboxamide] | 462 | 76 |  |  |
| O=C(Nc1cncc(-c2ccc3[nH]nc(-c4cc5c(-c6ccncc6)cccc5[nH]4)c3c2)c1)C1CCCCC1 [Compound 135, N-(5-(3-(4-(Pyridin-4-yl)-1H-indol-2-yl)-1H-indazol-5-yl)pyridin-3-yl) cyclohexanecarboxamide] | > 10000 | > 10000 | 12.2 | 10.7 |
| c1ccc(-c2ccc3[nH]nc(-c4cc5c(-c6ccncc6)cccc5[nH]4)c3c2)nc1 [Compound 140, 5-(Pyridin-2-yl)-3-(4-(pyridin-4-yl)-1H-indol-2-yl)-1H-indazole] | > 10000 | 1260 | 37.8 |  |
| Nc1cncc(-c2ccc3[nH]nc(-c4cc5c(-c6ccccn6)cccc5[nH]4)c3c2)c1 [Compound 143, 5-(3-(4-(Pyridin-2-yl)-1H-indol-2-yl)-1H-indazol-5-yl)pyridin-3-amine] | 748 | 82 |  |  |
| Cc1ccncc1-c1ccc2[nH]nc(-c3cc4c(-c5ccccn5)cccc4[nH]3)c2c1 [Compound 145, 5-(4-Methylpyridin-3-yl)-3-(4-(pyridin-2-yl)-1H-indol-2-yl)-1H-indazole] | > 10000 | 2940 | 36.7 |  |
| O=C(Nc1cncc(-c2ccc3[nH]nc(-c4cc5c(-c6ccccn6)cccc5[nH]4)c3c2)c1)c1ccccc1 [Compound 151, N-(5-(3-(4-(Pyridin-2-yl)-1H-indol-2-yl)-1H-indazol-5-yl)pyridin-3-yl) benzamide] | > 10000 | > 10000 | 17.7 | 0 |
| c1ccc(-c2cccc3[nH]c(-c4n[nH]c5ccc(-c6cncc(CN7CCCC7)c6)cc45)cc23)nc1 [Compound 154, 3-(4-(Pyridin-2-yl)-1H-indol-2-yl)-5-(5-(pyrrolidin-1-ylmethyl)pyridin-3-yl)-1H-indazole] | 2800 | 222 |  |  |
| c1ccc(-c2cccc3[nH]c(-c4n[nH]c5ccc(-c6ccncc6)cc45)cc23)nc1 [Compound 158, 3-(4-(Pyridin-2-yl)-1H-indol-2-yl)-5-(pyridin-4-yl)-1H-indazole] | > 10000 | 627 | 36.9 |  |
| CCCCC(=O)Nc1cncc(-c2ccc3[nH]nc(-c4cc5c(-c6ccccn6)cccc5[nH]4)c3c2)c1 [Compound 159, N-(5-(3-(4-(Pyridin-2-yl)-1H-indol-2-yl)-1H-indazol-5-yl)pyridin-3-yl) pentanamide] | > 10000 | > 10000 | 22.3 | 45.6 |
| c1ccc(-c2cccc3[nH]c(-c4n[nH]c5ccc(-c6cncnc6)cc45)cc23)nc1 [Compound 167, 3-(4-(Pyridin-2-yl)-1H-indol-2-yl)-5-(pyrimidin-5-yl)-1H-indazole] | > 10000 | 1200 | 10.9 |  |
| CCC(=O)Nc1cncc(-c2ccc3[nH]nc(-c4cc5c(N6CCCCC6)cccc5[nH]4)c3c2)c1 [Compound 169, N-(5-(3-(4-(Piperidin-1-yl)-1H-indol-2-yl)-1H-indazol-5-yl)pyridin-3-yl) propionamide] | > 10000 | 1020 | 10.4 |  |
| CN(C)Cc1cncc(-c2ccc3[nH]nc(-c4cc5c(N6CCCCC6)cccc5[nH]4)c3c2)c1 [Compound 181, N,N-Dimethyl-1-(5-(3-(4-(piperidin-1-yl)-1H-indol-2-yl)-1H-indazol-5-yl)pyridin-3-yl)methanamine] | 4160 | 4820 |  |  |
| O=C(Nc1cncc(-c2ccc3[nH]nc(-c4cc5c(N6CCCCC6)cccc5[nH]4)c3c2)c1)C1CC1 [Compound 188, N-(5-(3-(4-(Piperidin-1-yl)-1H-indol-2-yl)-1H-indazol-5-yl)pyridin-3-yl) cyclopropanecarboxamide] | > 10000 | 5790 | 29.5 |  |
| FC1(F)CCN(Cc2cncc(-c3ccc4[nH]nc(-c5cc6c(N7CCCCC7)cccc6[nH]5)c4c3)c2)C1 [Compound 194, 5-(5-((3,3-Difluoropyrrolidin-1-yl)methyl)pyridin-3-yl)-3-(4-(piperidin-1-yl)-1H-indol-2-yl)-1H-indazole] | 4430 | 1310 |  |  |
| CN1CCN(c2cccc3[nH]c(-c4n[nH]c5ccc(-c6cncc(N)c6)cc45)cc23)CC1 [Compound 227, 5-(3-(4-(4-Methylpiperazin-1-yl)-1H-indol-2-yl)-1H-indazol-5-yl)pyridin-3-amine] | 2960 | 4000 |  |  |
| CC(C)C(=O)Nc1cncc(-c2ccc3[nH]nc(-c4cc5c(N6CCN(C)CC6)cccc5[nH]4)c3c2)c1 [Compound 233, N-(5-(3-(4-(4-Methylpiperazin-1-yl)-1H-indol-2-yl)-1H-indazol-5-yl)pyridin-3-yl)isobutyramide] | 3160 | 1310 |  |  |
| CN1CCN(c2cccc3[nH]c(-c4n[nH]c5ccc(-c6cncc(CN7CCCCC7)c6)cc45)cc23)CC1 [Compound 239, 3-(4-(4-Methylpiperazin-1-yl)-1H-indol-2-yl)-5-(5-(piperidin-1-ylmethyl)pyridin-3-yl)-1H-indazole] | > 10000 | > 10000 | 51.7 | 21.1 |
| CN1CCN(c2cccc3[nH]c(-c4n[nH]c5ccc(-c6cncc(NC(=O)C7CCCC7)c6)cc45)cc23)CC1 [Compound 246, N-(5-(3-(4-(4-Methylpiperazin-1-yl)-1H-indol-2-yl)-1H-indazol-5-yl)pyridin-3-yl)cyclopentanecarboxamide] | 2990 | 2560 |  |  |
| CN1CCN(c2cccc3[nH]c(-c4n[nH]c5ccc(-c6cncnc6)cc45)cc23)CC1 [Compound 251, 3-(4-(4-Methylpiperazin-1-yl)-1H-indol-2-yl)-5-(pyrimidin-5-yl)-1H-indazole] | 3280 | 3040 |  |  |
| CCC(=O)Nc1cncc(-c2ccc3[nH]nc(-c4cc5ccccc5[nH]4)c3c2)c1 [Compound 253, N-(5-(3-(1H-Indol-2-yl)-1H-indazol-5-yl)pyridin-3-yl)propionamide] | > 10000 | 2310 | 13.6 |  |
| c1cncc(-c2ccc3[nH]nc(-c4cc5ccccc5[nH]4)c3c2)c1 [Compound 256, 3-(1H-Indol-2-yl)-5-(pyridin-3-yl)-1H-indazole] | > 10000 | 9770 | 4.7 |  |
| CCNCc1cncc(-c2ccc3[nH]nc(-c4cc5ccccc5[nH]4)c3c2)c1 [Compound 258, N-((5-(3-(1H-Indol-2-yl)-1H-indazol-5-yl)pyridin-3-yl)methyl)ethanamine] | 489 | 235 |  |  |
| O=C(Cc1ccccc1)Nc1cncc(-c2ccc3[nH]nc(-c4cc5ccccc5[nH]4)c3c2)c1 [Compound 262, N-(5-(3-(1H-Indol-2-yl)-1H-indazol-5-yl)pyridin-3-yl)-2-phenylacetamide] | > 10000 | > 10000 | 11.4 | 31.8 |
| O=C(Nc1cncc(-c2ccc3[nH]nc(-c4cc5ccccc5[nH]4)c3c2)c1)c1ccccc1 [Compound 263, N-(5-(3-(1H-Indol-2-yl)-1H-indazol-5-yl)pyridin-3-yl)benzamide] | > 10000 | 1570 | 2.9 |  |
| c1ccc2[nH]c(-c3n[nH]c4ccc(-c5cncc(CN6CCCC6)c5)cc34)cc2c1 [Compound 266, 3-(1H-Indol-2-yl)-5-(5-(pyrrolidin-1-ylmethyl)pyridin-3-yl)-1H-indazole] | 1040 | 563 |  |  |
| c1ccc2[nH]c(-c3n[nH]c4ccc(-c5cncc(CN6CCCCC6)c5)cc34)cc2c1 [Compound 267, 3-(1H-Indol-2-yl)-5-(5-(piperidin-1-ylmethyl)pyridin-3-yl)-1H-indazole] | > 10000 | > 10000 | 7.8 | 49.9 |
| CC(C)(C)CC(=O)Nc1cncc(-c2ccc3[nH]nc(-c4cc5ccccc5[nH]4)c3c2)c1 [Compound 268, N-(5-(3-(1H-Indol-2-yl)-1H-indazol-5-yl)pyridin-3-yl)-3,3-dimethylbutanamide] | > 10000 | 6890 | 12.4 |  |
